How the values were obtained:
[1] = Determination of percentage erosion of core tablet; format: physicochemical; conditions: 3 hours in water at 37° C.; for Percentage erosion (%) of compression-coated tablet containing Compound 1: core: 9 parts Compound 1 solid dispersion + 6 parts of the filler; for Percentage erosion (%) of compression-coated tablets containing acetaminophen: core: 5 parts acetaminophen + 10 parts of the filler
Method: A compression-coated tablet containing drug is made in accordance with the method of producing a timed-release compression-coated solid composition disclosed in the present invention, the tablet is moistened for 3 hours in water at 37° C., then the gelled part of the tablet is peeled off and the portion of the core tablet that has not eroded is removed. The core tablet is allowed to dry overnight in a dryer at 40° C. and weight is determined. The value obtained by subtracting dry weight from initial core tablet weight and dividing this by initial core weight is multiplied by 100 to calculate the percentage erosion.
The percentage erosion of the core tablet of both of the above-mentioned pharmaceutical preparations was determined in accordance with the previously described method of determining the percentage erosion of the core tablet.
Then 6 parts by weight of each filler were added to 9 parts by weight of the solid dispersion and mixed with a mortar and pestle. A core tablet of 150 mg per tablet with a diameter of 6.5 mm was obtained under compression force of 500 kg/punch using an oil press. Moreover, 10 parts by weight of each filler were separately added to 5 parts by weight acetaminophen (Yoshitomi Seiyaku) and mixed with a mortar and pestle and core tablets of 150 mg per tablet with a diameter of 6.5 mm were obtained under compression force of 500 kg/punch using an oil press. Furthermore, 75 mg polyethylene oxide (Polyox® WSR303) and 175 mg Macrogol 6000 were mixed with a mortar and pestle as the outer layer. […] This tablet was immersed for 3 hours in water at 37° C. and then the gelated part of the tablet was peeled off and the uneroded core was removed. The core was dried in a dryer overnight at 40° C. and then weighed. The percentage erosion of the core tablet was calculated from the dry weight and initial weight.

[2] = Solubility of each filler (amount of water needed to dissolve 1 g filler)
[3] = tested on: CYP3A4; test: Test Example 5: midazolam plasma concentration in dogs with concomitant Compound 1; conditions: Experiment 1, midazolam singular administration, oral 4 mg/dog, n=6
[4] = tested on: CYP3A4; test: Test Example 7: midazolam plasma concentration in dogs with concomitant ketoconazol; conditions: aqueous solution containing ketoconazol with midazolam

O=C1O[C@H]([C@@H](O)CO)C(O)=C1O [Ascorbic acid]
Percentage erosion (%) of compression-coated tablet containing Compound 1 [1]: 32.4%

N[C@@H](CC(=O)O)C(=O)O [Aspartic acid]
Percentage erosion (%) of compression-coated tablet containing Compound 1 [1]: 1.4%

O=C(O)CC(O)(CC(=O)O)C(=O)O [Citric acid]
Percentage erosion (%) of compression-coated tablet containing Compound 1 [1]: 60.3%

O=C(O)/C=C/C(=O)O [Fumaric acid]
Percentage erosion (%) of compression-coated tablet containing Compound 1 [1]: 2.0% | Solubility of filler ([2]; Table 3): > 10 mL

OC[C@H]1O[C@@H](O[C@H]2[C@H](O)[C@@H](O)C(O)O[C@@H]2CO)[C@H](O)[C@@H](O)[C@H]1O (some centres unmarked) [Lactose]
Percentage erosion (%) of compression-coated tablets containing acetaminophen [1]: 7.6% | Percentage erosion (%) of compression-coated tablet containing Compound 1 [1]: 24.0%

O=C(O)CC(O)C(=O)O (centres unmarked) [Malic acid]
Percentage erosion (%) of compression-coated tablets containing acetaminophen [1]: 79.3% | Percentage erosion (%) of compression-coated tablet containing Compound 1 [1]: 75.0% | Solubility of filler ([2]; Table 3): 2 mL | Solubility of filler ([2]; Table 4): 2 mL

Cc1ncc2n1-c1ccc(Cl)cc1C(c1ccccc1F)=NC2 [Midazolam, midazolam]
Mean AUC of midazolam plasma concentration [3]: 9.0 ± 6.0 ngh/ml

O=C(O)CCC(=O)O [Succinic acid]
Percentage erosion (%) of compression-coated tablets containing acetaminophen [1]: 12.8% | Percentage erosion (%) of compression-coated tablet containing Compound 1 [1]: 19.2%

OC[C@H]1O[C@@](CO)(O[C@H]2O[C@H](CO)[C@@H](O)[C@H](O)[C@H]2O)[C@@H](O)[C@@H]1O [Sucrose]
Percentage erosion (%) of compression-coated tablets containing acetaminophen [1]: 56.1% | Percentage erosion (%) of compression-coated tablet containing Compound 1 [1]: 48.4% | Solubility of filler ([2]; Table 3): 1 mL | Solubility of filler ([2]; Table 4): 1 mL

O=C(O)C(O)C(O)C(=O)O (centres unmarked) [Tartaric acid]
Percentage erosion (%) of compression-coated tablet containing Compound 1 [1]: 65.7%

CC(=O)N1CCN(c2ccc(OCC3COC(Cn4ccnc4)(c4ccc(Cl)cc4Cl)O3)cc2)CC1 (centres unmarked) [ketoconazol]
increase of average midazolam AUC compared to midazolam singular administration [4]: ≤ 4 times
